Source: patent US4546176A, “7-Carboxymethoxyphenylacetamido-3-cephem derivatives and antibacterial preparations containing the same” (Eisai Co., Ltd., priority 1982, dated 1985)
Values after ≈ are worked out from the molar mass of the structure shown.

Columns and labels:
[1] = system: Staph. aureus 209-P; experiment: Antibacterial activities (MIC), Staph. aureus 209-P; type: cell-based; details: Staphylococcus aureus
Source text: (§1) (1) Antibacterial activities (MIC):

[2] = system: Escher. coli NIHJ; experiment: Antibacterial activities (MIC), Escher. coli NIHJ; type: cell-based; details: Escherichia coli
Source text: as §1

[3] = system: Kleb. pneumoniae EK-6; experiment: Antibacterial activities (MIC), Kleb. pneumoniae EK-6; type: cell-based; details: Klebsiella pneumoniae, EK6
Source text: as §1

[4] = system: Proteus morganii EP-14; experiment: Antibacterial activities (MIC), Proteus morganii EP-14; type: cell-based; details: Morganella morganii, EP14
Source text: as §1

[5] = system: Pseud. aeruginosa EP-01; experiment: Antibacterial activities (MIC), Pseud. aeruginosa EP-01; type: cell-based; details: Pseudomonas aeruginosa, EP01
Source text: as §1

[6] = system: Ser. marcescens ES-75; experiment: Antibacterial activities (MIC), Ser. marcescens ES-75; type: cell-based; details: Serratia marcescens, ES75
Source text: as §1

[7] = system: Proteus vulgaris E-18; experiment: Antibacterial activities (MIC), Proteus vulgaris E-18 (lactamase producing); type: cell-based; details: E18; Proteus vulgaris E-18, lactamase producing bacteria
Source text: as §1
*Lactamase producing bacteria.

[8] = Urinary excretion rate in mice; type: in vivo, ICR male mice; details: mouse, sc, 20 mg/kg subcutaneous, urine up to 6 hours, bioassay
Procedure: ICR male mice (body weight: 20-30 g) were used. Each compound was dissolved in an M/15 phosphate buffer (pH 7.0) and administered in an amount of 20 mg/kg by the subcutaneous route. Urine was collected up to 6 hours after the administration. The concentration of the compound was determined by the bioassey technique (the agar-well method) using Pseudomonas aeruginosa as a test microorganism. On the basis of the thus-determined concentration, its excreted amount was obtained. The urinary excretion rate was then calculated from the excreted amount based on the amount administered.

[9] = Solubility in water; type: physicochemical; details: in distilled water at 25° C.
[10] = Acute toxicity LD50 (mouse, oral); details: in vivo
Source text: The acute toxicity values [LD50 (mouse, oral)] of the following compounds were each 4 g/kg or greater;

Compound	MIC [1] [µg/mL]	MIC [2] [µg/mL]	MIC [3] [µg/mL]	MIC [4] [µg/mL]	MIC [5] [µg/mL]	MIC [6] [µg/mL]	MIC [7] [µg/mL]	dose excreted at 6 h [8] [%]	solubility [9] [mg/mL]	LD50 [10] [mg/kg]
CO[C@@]1(NC(=O)[C@H](NC(=O)c2c(C)oc3c(OC(C)=O)c(OC(C)=O)ccc3c2=O)c2ccc(OCC(=O)O)cc2)C(=O)N2C(C(=O)O)=C(CSc3nnnn3CC(=O)O)CS[C@@H]21 [Example 24, 7β-[D-2-(4-Carboxymethoxyphenyl)-2-(7,8-diacetoxy-2-methyl-4-oxo-4H-1-benzopyran-3-carboxamido)-acetamido]-7α-methoxy-3-(1-carboxymethyl-4-tetrazolyl)thiomethyl-3-cephem-4-carboxylic acid]	100 (≈ 110 µM)	0.8 (≈ 0.877 µM)	≤ 0.05	12.5 (≈ 13.7 µM)	0.8 (≈ 0.877 µM)	0.8 (≈ 0.877 µM)	3.13 (≈ 3.43 µM)	–	–	–
CO[C@@]1(NC(=O)[C@H](NC(=O)c2coc3cc(O)c(O)cc3c2=O)c2ccc(OCC(=O)O)cc2)C(=O)N2C(C(=O)[O-])=C(C[n+]3ccc(C(N)=O)cc3)CS[C@@H]21 [Example 51, Sodium 7β-[D-2-(4-carboxymethoxyphenyl)-2-(6,7-dihydroxy-4-oxo-4H-1-benzopyran-3-carboxamido)-acetamido]-7α-methoxy-3-(4-carbamoylpyridinium)-methyl-3-cephem-4-carboxylate]	50	1.56	≤ 0.05	25	0.4	0.8	3.13	16	≥ 300	–
Cc1oc2cc(O)c(O)cc2c(=O)c1C(=O)N[C@@H](C(=O)N[C@@H]1C(=O)N2C(C(=O)O)=C(CSc3nnnn3CC(=O)O)CS[C@H]12)c1ccc(OCC(=O)O)cc1 [Example 15, Trisodium 7β-[D-2-(4-carboxymethoxyphenyl)-2-(6,7-dihydroxy-2-methyl-4-oxo-4H-1-benzopyran-3-carboxamido)acetamido]-3-(1-carboxymethyl-5-tetrazolyl)thiomethyl-3-cephem-4-carboxylate]	100	0.2	≤ 0.05	3.13	0.2	0.1	–	32	≥ 300	≥ 4000
Cc1oc2cc(O)c(O)cc2c(=O)c1C(=O)N[C@@H](C(=O)N[C@@H]1C(=O)N2C(C(=O)[O-])=C(C[n+]3ccc(CCS(=O)(=O)O)cc3)CS[C@H]12)c1ccc(OCC(=O)O)cc1 [Example 42, Disodium 7β-[D-2-(4-carboxymethoxyphenyl)-2-(6,7-dihydroxy-2-methyl-4-oxo-4H-1-benzopyran-3-carboxamido)acetamido]-3-[4-(2-sulfoethyl)-pyridinium]methyl-3-cephem-4-carboxylate]	100	0.2	≤ 0.05	3.13	0.2	0.2	–	46	≥ 300	≥ 4000
CO[C@@]1(NC(=O)[C@H](NC(=O)c2c(C)oc3c(O)c(O)ccc3c2=O)c2ccc(OCC(=O)O)cc2)C(=O)N2C(C(=O)O)=C(CSc3nnnn3CC(=O)O)CS[C@@H]21 [Example 28, Trisodium 7β-[D-2-(4-carboxymethoxyphenyl)-2-(7,8-dihydroxy-2-methyl-4-oxo-4H-1-benzopyran-3-carboxamido)-acetamido]-7α-methoxy-3-(1-carboxymethyl-5-tetrazolyl)-thiomethyl-3-cephem-4-carboxylate]	100	0.8	≤ 0.05	6.25	0.8	0.8	3.13	24	–	–
Cc1oc2cc(O)c(O)cc2c(=O)c1C(=O)N[C@@H](C(=O)N[C@@H]1C(=O)N2C(C(=O)[O-])=C(C[n+]3cccc(CC(=O)O)c3)CS[C@H]12)c1ccc(OCC(=O)O)cc1 [Example 43, Disodium 7β-[D-2-(4-carboxymethoxyphenyl)-2-(6,7-dihydroxy-2-methyl-4-oxo-4H-1-benzopyran-3-carboxamido)acetamido]-3-(3-carboxymethylpyridinium)-methyl-3-cephem-4-carboxylate]	100	0.8	≤ 0.05	12.5	0.1	0.2	–	25	≥ 300	≥ 4000
Cc1oc2cc(O)c(O)cc2c(=O)c1C(=O)N[C@@H](C(=O)N[C@@H]1C(=O)N2C(C(=O)[O-])=C(C[n+]3ccc(C(N)=O)cc3)CS[C@H]12)c1ccc(OCC(=O)O)cc1 [Example 57, 7β-[D-2-(4-Carboxymethoxyphenyl)-2-(6,7-dihydroxy-2-methyl-4-oxo-4H-1-benzopyran-3-carboxamido)acetamido]-3-(4-carbamoylpyridinium)methyl-3-cephem-4-carboxylate]	–	–	–	–	–	–	–	–	–	≥ 4000
